Experimental data reported in US9663508B2, “Biaryl acyl-sulfonamide compounds as sodium channel inhibitors” (AMGEN INC., priority 2013, dated 2017).
Where two headings read alike, the source gives them in different places.

Assays:
[1] = molecular target: human Nav 1.5 (Homo sapiens (Human), UniProt Q14524); test: Nav 1.5 IonWorks Quattro (IWQ) in vitro assay; assay type: cell-based
Method: Nav 1.7 or Nav 1.5 Ion Works Quattro (IWQ) In Vitro Assay
HEK 293 Cells stably transfected with either human Nay 1.7 or human Nay 1.5 were recorded in population patch-clamp mode with the IonWorks® Quattro automated electrophysiology system in accordance with the manufacturer's specifications (Molecular Devices, LLC, Sunnyvale, Calif.). Sodium channel currents were measured in response to a train of depolarizations that induced successively greater inactivation.
Cells were held at −110 mV for three seconds (Nav 1.7) or half a second (Nav 1.5) from a holding voltage of −15 mV, then put through a series of 26 pulses of 150 msec duration to −20 mV at a frequency of 5 Hz. Cells were then left unclamped for a period of 3 to 8 minutes while a single concentration of test compound was added. Cells were then reclamped and put through the same voltage protocol. Current at the end of the 26th pulse to −20 mV was subtracted from the peak current evoked by the 26th pulse to −20 mV to correct for leak current. Percent block was calculated for each concentration in duplicate, and IC50 curves were fitted to percent block as a function of concentration.

[2] = molecular target: human Nav1.7 (Homo sapiens (Human), UniProt Q15858); test: Nav 1.7 in vitro PatchXpress (PX) assay; assay type: cell-based
[3] = in-vitro Nav 1.5 IWQ data, read-out: NAV 1.5 IWQ (IC50)

Chain of human Nav 1.5 (Q14524 whole entry): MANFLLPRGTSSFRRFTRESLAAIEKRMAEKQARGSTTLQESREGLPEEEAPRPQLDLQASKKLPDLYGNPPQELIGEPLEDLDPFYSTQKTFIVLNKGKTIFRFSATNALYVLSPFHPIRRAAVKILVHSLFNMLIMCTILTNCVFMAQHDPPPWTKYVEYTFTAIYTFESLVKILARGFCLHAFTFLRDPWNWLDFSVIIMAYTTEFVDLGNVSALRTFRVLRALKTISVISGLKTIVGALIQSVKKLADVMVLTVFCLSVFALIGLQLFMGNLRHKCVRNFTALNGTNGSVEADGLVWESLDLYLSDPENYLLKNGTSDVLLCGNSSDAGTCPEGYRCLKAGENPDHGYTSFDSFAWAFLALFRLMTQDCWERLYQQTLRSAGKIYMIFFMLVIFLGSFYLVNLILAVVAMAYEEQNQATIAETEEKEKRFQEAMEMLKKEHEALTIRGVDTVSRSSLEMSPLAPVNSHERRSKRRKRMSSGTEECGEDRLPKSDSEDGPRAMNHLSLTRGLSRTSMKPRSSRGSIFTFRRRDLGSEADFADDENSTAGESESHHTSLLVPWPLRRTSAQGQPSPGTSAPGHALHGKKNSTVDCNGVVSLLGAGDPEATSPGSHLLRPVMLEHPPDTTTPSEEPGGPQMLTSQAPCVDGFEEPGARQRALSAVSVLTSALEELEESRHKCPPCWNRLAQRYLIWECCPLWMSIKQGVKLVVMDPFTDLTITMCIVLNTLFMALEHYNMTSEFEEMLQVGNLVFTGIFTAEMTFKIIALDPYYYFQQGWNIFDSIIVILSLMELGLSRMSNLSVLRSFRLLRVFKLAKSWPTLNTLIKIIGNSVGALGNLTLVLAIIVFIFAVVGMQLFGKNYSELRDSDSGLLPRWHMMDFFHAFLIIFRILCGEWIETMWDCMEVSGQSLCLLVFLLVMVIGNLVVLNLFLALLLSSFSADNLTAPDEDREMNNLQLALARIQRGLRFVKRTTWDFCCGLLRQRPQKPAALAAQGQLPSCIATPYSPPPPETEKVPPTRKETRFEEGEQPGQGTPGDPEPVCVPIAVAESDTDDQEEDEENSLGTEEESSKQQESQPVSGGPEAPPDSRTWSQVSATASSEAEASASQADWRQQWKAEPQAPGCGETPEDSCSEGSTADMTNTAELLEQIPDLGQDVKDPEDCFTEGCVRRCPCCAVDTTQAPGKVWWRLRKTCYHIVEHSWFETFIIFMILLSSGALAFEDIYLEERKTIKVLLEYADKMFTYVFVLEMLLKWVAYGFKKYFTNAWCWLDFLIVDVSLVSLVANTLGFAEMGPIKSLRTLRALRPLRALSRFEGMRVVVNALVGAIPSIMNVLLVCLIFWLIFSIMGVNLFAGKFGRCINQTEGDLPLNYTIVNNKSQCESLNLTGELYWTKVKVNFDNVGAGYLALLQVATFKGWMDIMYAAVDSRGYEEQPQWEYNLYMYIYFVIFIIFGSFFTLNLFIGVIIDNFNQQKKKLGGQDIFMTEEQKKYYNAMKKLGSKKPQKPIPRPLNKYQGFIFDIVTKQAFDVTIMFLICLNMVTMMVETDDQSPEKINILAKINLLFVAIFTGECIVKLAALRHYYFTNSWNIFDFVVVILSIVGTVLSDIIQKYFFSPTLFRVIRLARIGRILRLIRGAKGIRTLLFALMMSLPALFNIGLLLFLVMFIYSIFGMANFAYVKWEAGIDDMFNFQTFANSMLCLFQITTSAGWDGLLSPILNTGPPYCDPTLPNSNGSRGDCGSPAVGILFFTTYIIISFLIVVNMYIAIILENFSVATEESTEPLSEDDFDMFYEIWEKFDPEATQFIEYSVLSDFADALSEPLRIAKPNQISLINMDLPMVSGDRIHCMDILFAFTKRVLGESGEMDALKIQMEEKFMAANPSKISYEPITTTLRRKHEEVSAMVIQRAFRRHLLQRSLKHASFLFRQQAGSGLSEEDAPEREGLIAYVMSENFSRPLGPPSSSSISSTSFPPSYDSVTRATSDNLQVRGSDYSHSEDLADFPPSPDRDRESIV
Chain of human Nav1.7 (Q15858 whole entry): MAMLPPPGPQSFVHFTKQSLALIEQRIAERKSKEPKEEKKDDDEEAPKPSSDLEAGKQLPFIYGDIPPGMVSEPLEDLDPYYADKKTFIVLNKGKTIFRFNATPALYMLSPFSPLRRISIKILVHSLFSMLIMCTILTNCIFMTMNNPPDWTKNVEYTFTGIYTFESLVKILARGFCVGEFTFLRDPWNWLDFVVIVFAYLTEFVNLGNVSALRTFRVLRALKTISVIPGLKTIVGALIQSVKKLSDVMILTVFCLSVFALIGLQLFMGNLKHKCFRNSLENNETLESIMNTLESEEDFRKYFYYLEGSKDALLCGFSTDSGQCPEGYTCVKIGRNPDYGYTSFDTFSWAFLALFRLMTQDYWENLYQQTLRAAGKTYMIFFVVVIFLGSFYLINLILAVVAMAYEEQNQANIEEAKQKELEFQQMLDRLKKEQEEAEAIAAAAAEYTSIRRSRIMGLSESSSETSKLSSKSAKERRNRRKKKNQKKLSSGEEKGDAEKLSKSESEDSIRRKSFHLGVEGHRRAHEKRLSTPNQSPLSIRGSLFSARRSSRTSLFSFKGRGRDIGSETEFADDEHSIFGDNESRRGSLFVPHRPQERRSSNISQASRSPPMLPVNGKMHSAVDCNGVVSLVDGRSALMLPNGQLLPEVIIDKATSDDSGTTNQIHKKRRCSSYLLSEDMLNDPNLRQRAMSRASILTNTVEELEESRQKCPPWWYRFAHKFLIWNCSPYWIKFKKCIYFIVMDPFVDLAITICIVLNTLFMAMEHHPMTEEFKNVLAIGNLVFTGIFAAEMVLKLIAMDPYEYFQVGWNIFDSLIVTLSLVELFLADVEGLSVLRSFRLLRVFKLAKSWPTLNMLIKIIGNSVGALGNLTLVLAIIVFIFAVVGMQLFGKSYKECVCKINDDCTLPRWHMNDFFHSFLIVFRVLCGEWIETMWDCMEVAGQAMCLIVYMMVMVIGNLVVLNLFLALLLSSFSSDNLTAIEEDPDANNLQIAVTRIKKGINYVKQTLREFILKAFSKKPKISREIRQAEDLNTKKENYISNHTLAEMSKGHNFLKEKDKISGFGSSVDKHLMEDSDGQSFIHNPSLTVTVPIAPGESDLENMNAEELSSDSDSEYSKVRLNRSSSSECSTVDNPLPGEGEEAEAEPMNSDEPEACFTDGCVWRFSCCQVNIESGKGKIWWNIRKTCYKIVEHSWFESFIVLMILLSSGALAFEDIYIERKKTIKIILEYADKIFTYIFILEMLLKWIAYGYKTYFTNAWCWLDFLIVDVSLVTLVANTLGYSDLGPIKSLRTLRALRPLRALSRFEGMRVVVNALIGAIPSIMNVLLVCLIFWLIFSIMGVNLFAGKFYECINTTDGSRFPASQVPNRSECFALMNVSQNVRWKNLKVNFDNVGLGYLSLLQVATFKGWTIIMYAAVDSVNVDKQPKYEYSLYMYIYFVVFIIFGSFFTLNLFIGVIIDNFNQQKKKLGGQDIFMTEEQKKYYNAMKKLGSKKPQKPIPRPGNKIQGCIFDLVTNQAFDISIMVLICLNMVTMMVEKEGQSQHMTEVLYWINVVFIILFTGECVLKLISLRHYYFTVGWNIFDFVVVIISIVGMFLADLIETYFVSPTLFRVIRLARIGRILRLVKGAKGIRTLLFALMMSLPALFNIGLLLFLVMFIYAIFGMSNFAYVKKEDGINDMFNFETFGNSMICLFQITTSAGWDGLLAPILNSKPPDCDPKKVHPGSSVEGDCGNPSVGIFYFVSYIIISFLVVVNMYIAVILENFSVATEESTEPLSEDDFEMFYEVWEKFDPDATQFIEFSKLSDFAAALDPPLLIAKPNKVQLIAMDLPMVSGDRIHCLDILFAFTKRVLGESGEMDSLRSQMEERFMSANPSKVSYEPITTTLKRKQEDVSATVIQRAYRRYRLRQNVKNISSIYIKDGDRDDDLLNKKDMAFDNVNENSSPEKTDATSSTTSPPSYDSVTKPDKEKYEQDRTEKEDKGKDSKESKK

Row | IC50 [2] [nM] | IC50 ([2]; in-vitro Nav 1.7 PX data) [nM] | Structure (SMILES) | IC50 ([1]; read-out: NAV 1.5 IWQ IC50) [nM] | IC50 [1, 3] [nM] | IC50 [1] [nM]
1 | 90.4 |  | Cc1cc(C(=O)NS(C)(=O)=O)c(F)cc1-c1cnc(OCc2cccc3ncccc23)c(Cl)c1 [Example 654, 4-(5-chloro-6-(5-quinolinylmethoxy)-3-pyridinyl)-2-fluoro-5-methyl-N-(methylsulfonyl)benzamide] | > 3000 |  | 
2 |  | 91.6 | COc1cc(C(=O)NS(C)(=O)=O)ccc1-c1cc(Cl)nc(Oc2cc(Cl)cc(Cl)c2)c1 [Example 803, 4-(2-chloro-6-(3,5-dichlorophenoxy)-4-pyridinyl)-3-methoxy-N-(methylsulfonyl)benzamide] |  | > 3000 | 
3 | 81.5 |  | Cc1cc(Cl)c(Oc2ncc(-c3cc(F)c(C(=O)NS(C)(=O)=O)cc3C)cc2Cl)cc1C [Example 632, 4-(5-chloro-6-(2-chloro-4,5-dimethylphenoxy)-3-pyridinyl)-2-fluoro-5-methyl-N-(methylsulfonyl)benzamide] | > 3000 |  | 
4 | 48.5 |  | Cc1ccc(Oc2ncc(-c3cc(F)c(C(=O)NS(C)(=O)=O)cc3C)cc2Cl)cc1F [Example 623, 4-(5-chloro-6-(3-fluoro-4-methylphenoxy)-3-pyridinyl)-2-fluoro-5-methyl-N-(methylsulfonyl)benzamide] |  |  | 4840
5 | 93.7 |  | Cc1cc(C(=O)NS(C)(=O)=O)c(F)cc1-c1cnc(Oc2cccc(Cl)c2F)c(Cl)c1 [Example 619, 4-(5-chloro-6-(3-chloro-2-fluorophenoxy)-3-pyridinyl)-2-fluoro-5-methyl-N-(methylsulfonyl)benzamide] | > 3000 |  | 
6 | 68.2 |  | Cc1cc(C(=O)NS(C)(=O)=O)c(F)cc1-c1cnc(Oc2cccc(Br)c2)c(Cl)c1 [Example 607, 4-(6-(3-bromophenoxy)-5-chloro-3-pyridinyl)-2-fluoro-5-methyl-N-(methylsulfonyl)benzamide] | > 3000 |  | 
7 |  | 78.2 | Cc1cc(C(=O)NS(C)(=O)=O)ccc1-c1cnc(Oc2c(C)cc(Cl)cc2Cl)c(Cl)c1 [Example 775, 4-(5-Chloro-6-(2,4-Dichloro-6-Methylphenoxy)-3-Pyridinyl)-3-Methyl-N-(Methyl Sulfonyl)Benzamide] |  | > 4900 | 
8 | 82.3 |  | CS(=O)(=O)NC(=O)c1cc(Cl)c(-c2cnc(Oc3ccc(F)c(F)c3F)c(Cl)c2)cc1F [Example 588, 5-chloro-4-(5-chloro-6-(2,3,4-trifluorophenoxy)-3-pyridinyl)-2-fluoro-N-(methylsulfonyl)benzamide] | > 3000 |  | 
9 | 66.1 |  | CS(=O)(=O)NC(=O)c1cc(Cl)c(-c2cnc(Oc3c(Cl)cccc3Cl)c(Cl)c2)cc1F [Example 592, 5-chloro-4-(5-chloro-6-(2,6-dichlorophenoxy)-3-pyridinyl)-2-fluoro-N-(methylsulfonyl)benzamide] | > 3000 |  | 
10 | 87.3 |  | Cc1cc(C(=O)NS(C)(=O)=O)c(F)cc1-c1cnc(Oc2c(F)cc(F)cc2F)c(Cl)c1 [Example 622, 4-(5-chloro-6-(2,4,6-trifluorophenoxy)-3-pyridinyl)-2-fluoro-5-methyl-N-(methylsulfonyl)benzamide] | > 3000 |  | 
11 | 95 |  | COc1cc(C(=O)NS(C)(=O)=O)ccc1-c1cnc(OCc2ccccc2Cl)c(Cl)c1 [Example 577, 4-(5-chloro-6-((2-chlorobenzyl)oxy)-3-pyridinyl)-3-methoxy-N-(methylsulfonyl)benzamide] | > 3000 |  | 
12 | 73.5 |  | CC[C@H](Oc1ncc(-c2cc(F)c(C(=O)NS(C)(=O)=O)cc2C)cc1Cl)c1ccc(F)cc1 [Example 651, 4-(5-chloro-6-(((1S)-1-(4-fluorophenyl)propyl)oxy)-3-pyridinyl)-2-fluoro-5-methyl-N-(methylsulfonyl)benzamide] | > 3000 |  | 
13 | 99.9 |  | Cc1cc(C(=O)NS(C)(=O)=O)c(F)cc1-c1cnc(N2CCC[C@H]2c2ccccc2)c(Cl)c1 [Example 646, 4-(5-chloro-6-((2S)-2-phenyl-1-pyrrolidinyl)-3-pyridinyl)-2-fluoro-5-methyl-N-(methylsulfonyl)benzamide] | > 3000 |  | 
14 | 35.7 |  | Cc1cc(C(=O)NS(C)(=O)=O)c(F)cc1-c1cnc(Oc2ccc(Cl)cc2Cl)c(Cl)c1 [Example 665, 4-(5-chloro-6-(2,4-dichlorophenoxy)-3-pyridinyl)-2-fluoro-5-methyl-N-(methylsulfonyl)benzamide] | 4680 |  | 
15 | 71.7 |  | Cc1cc(C(=O)NS(C)(=O)=O)c(F)cc1-c1cnc(Oc2cc(F)c(Br)cc2Cl)c(Cl)c1 [Example 606, 4-(6-(4-bromo-2-chloro-5-fluorophenoxy)-5-chloro-3-pyridinyl)-2-fluoro-5-methyl-N-(methylsulfonyl)benzamide] | > 3000 |  | 
16 | 83.3 |  | Cc1cc(C(=O)NS(C)(=O)=O)c(F)cc1-c1cnc(Oc2c(C)cccc2C(C)(C)C)c(Cl)c1 [Example 633, 4-(6-(2-tert-butyl-6-methylphenoxy)-5-chloro-3-pyridinyl)-2-fluoro-5-methyl-N-(methylsulfonyl)benzamide] | > 3000 |  | 
17 |  | 56.2 | Cc1cc(C(=O)NS(=O)(=O)C2CC2)c(F)cc1-c1cnc(Oc2c(C)cc(Cl)cc2Cl)c(Cl)c1 [Example 801, 4-(5-chloro-6-(2,4-dichloro-6-methylphenoxy)-3-pyridinyl)-N-(cyclopropylsulfonyl)-2-fluoro-5-methylbenzamide] |  | 485 | 
18 | 75.2 |  | Cc1cc(C(=O)NS(C)(=O)=O)c(F)cc1-c1cnc(Oc2ccc(F)c(F)c2F)c(Cl)c1 [Example 615, 4-(5-chloro-6-(2,3,4-trifluorophenoxy)-3-pyridinyl)-2-fluoro-5-methyl-N-(methylsulfonyl)benzamide] | > 3000 |  | 
19 | 66 |  | Cc1cc(C(=O)NS(C)(=O)=O)c(F)cc1-c1cnc(Oc2c(C)cc(Cl)cc2C)c(Cl)c1 [Example 669, 4-(5-chloro-6-(4-chloro-2,6-dimethylphenoxy)-3-pyridinyl)-2-fluoro-5-methyl-N-(methylsulfonyl)benzamide] | 3610 |  | 
20 | 77.8 |  | Cc1cc(C(=O)NS(C)(=O)=O)c(F)cc1-c1cnc(Oc2cc(F)cc(F)c2)c(Cl)c1 [Example 630, 4-(5-chloro-6-(3,5-difluorophenoxy)-3-pyridinyl)-2-fluoro-5-methyl-N-(methylsulfonyl)benzamide] | > 3000 |  | 
21 | 95 |  | Cc1cc(C(=O)NS(C)(=O)=O)c(F)cc1-c1cnc(Oc2cccc(C)c2F)c(Cl)c1 [Example 618, 4-(5-chloro-6-(2-fluoro-3-methylphenoxy)-3-pyridinyl)-2-fluoro-5-methyl-N-(methylsulfonyl)benzamide] | > 3000 |  | 
22 | 59 |  | COc1cc(C(=O)NS(C)(=O)=O)c(F)cc1-c1cnc(Oc2ccc(C)c(F)c2)c(Cl)c1 [Example 698, 4-(5-chloro-6-(3-fluoro-4-methylphenoxy)-3-pyridinyl)-2-fluoro-5-methoxy-N-(methylsulfonyl)benzamide] | 6050 |  | 
23 | 62.8 |  | Cc1cc(C(=O)NS(C)(=O)=O)c(F)cc1-c1cnc(Oc2cc(F)cc(F)c2Cl)c(Cl)c1 [Example 631, 4-(5-chloro-6-(2-chloro-3,5-difluorophenoxy)-3-pyridinyl)-2-fluoro-5-methyl-N-(methylsulfonyl)benzamide] | > 3000 |  | 
24 | 59.8 |  | Cc1cc(Cl)cc(Cl)c1Oc1ncc(-c2cc(F)c(C(=O)NS(C)(=O)=O)cc2F)cc1Cl [Example 567, 4-(5-chloro-6-(2,4-dichloro-6-methylphenoxy)-3-pyridinyl)-2,5-difluoro-N-(methylsulfonyl)benzamide] | > 4900 |  | 
25 | 94.8 |  | Cc1ccc(Oc2ncc(-c3cc(F)c(C(=O)NS(C)(=O)=O)cc3C)cc2Cl)c(C(C)(C)C)c1 [Example 634, 4-(6-(2-tert-butyl-4-methylphenoxy)-5-chloro-3-pyridinyl)-2-fluoro-5-methyl-N-(methylsulfonyl)benzamide] | > 3000 |  | 
26 | 50.5 |  | Cc1cc(C(=O)NS(C)(=O)=O)c(F)cc1-c1cnc(Oc2cc(Cl)c(Cl)cc2Cl)c(Cl)c1 [Example 667, 4-(5-chloro-6-(2,4,5-trichlorophenoxy)-3-pyridinyl)-2-fluoro-5-methyl-N-(methylsulfonyl)benzamide] | 7450 |  | 

Row | Structure (SMILES) | IC50 [2] [nM] | IC50 ([2]; in-vitro Nav 1.7 PX data) [nM] | IC50 ([1]; read-out: NAV 1.5 IWQ IC50) [nM] | IC50 [1, 3] [nM] | IC50 [1] [nM]
27 | Cc1cc(C(=O)NS(C)(=O)=O)c(F)cc1-c1cnc(N2CCC[C@@H]2c2ccc(Cl)c(Cl)c2)c(Cl)c1 [Example 658, 4-(5-chloro-6-((2R)-2-(3,4-dichlorophenyl)-1-pyrrolidinyl)-3-pyridinyl)-2-fluoro-5-methyl-N-(methylsulfonyl)benzamide, 4-(5-chloro-6-((2S)-2-(3,4-dichlorophenyl)-1-pyrrolidinyl)-3-pyridinyl)-2-fluoro-5-methyl-N-(methylsulfonyl)benzamide] | 89.9 |  | > 3000 |  | 
28 | COc1cc(C(=O)NS(C)(=O)=O)ccc1-c1cnc(OCc2ccc(Cl)cc2)c(Cl)c1 [Example 576, 4-(5-chloro-6-((4-chlorobenzyl)oxy)-3-pyridinyl)-3-methoxy-N-(methylsulfonyl)benzamide] | 70 |  |  |  | > 3000
29 | COc1cc(C(=O)NS(C)(=O)=O)ccc1-c1cnc(Oc2cc(Cl)cc(Cl)c2)c(Cl)c1 [Example 348, 4-(5-chloro-6-(3,5-dichlorophenoxy)-3-pyridinyl)-3-methoxy-N-(methylsulfonyl)benzamide] | 34.5 |  | 5740 |  | 
30 | CC[C@@H](Oc1ncc(-c2cc(F)c(C(=O)NS(C)(=O)=O)cc2C)cc1Cl)c1ccc(F)cc1 [Example 650, 4-(5-chloro-6-(((1R)-1-(4-fluorophenyl)propyl)oxy)-3-pyridinyl)-2-fluoro-5-methyl-N-(methylsulfonyl)benzamide] | 78.7 |  | > 3000 |  | 
31 | CC[C@H](Cc1ccccc1)Oc1ncc(-c2cc(F)c(C(=O)NS(C)(=O)=O)cc2Cl)cc1Cl [Example 593, 4-(6-(((1R)-1-benzylpropyl)oxy)-5-chloro-3-pyridinyl)-5-chloro-2-fluoro-N-(methylsulfonyl)benzamide, 4-(6-(((1S)-1-benzylpropyl)oxy)-5-chloro-3-pyridinyl)-5-chloro-2-fluoro-N-(methylsulfonyl)benzamide] | 97.4 |  | > 3000 |  | 
